Our source for the inhibition and growth values is ChEMBL document CHEMBL1275384, “Structure-activity relationships of benzimidazole-based selective inhibitors of the mitogen activated kinase-5 signaling pathway” (2010).

As usually defined, the inhibition is how much of the control response was suppressed. A high value points to strong suppression.

The target of test [1] is T1, Dual specificity mitogen-activated protein kinase kinase 5 (Homo sapiens) (UniProt Q13163).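 Note: MEK5 activity stimulated by EGF, read out as phospho-ERK5 on Western blot after 1 h treatment, expressed relative to control.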
T1 sequence (whole entry): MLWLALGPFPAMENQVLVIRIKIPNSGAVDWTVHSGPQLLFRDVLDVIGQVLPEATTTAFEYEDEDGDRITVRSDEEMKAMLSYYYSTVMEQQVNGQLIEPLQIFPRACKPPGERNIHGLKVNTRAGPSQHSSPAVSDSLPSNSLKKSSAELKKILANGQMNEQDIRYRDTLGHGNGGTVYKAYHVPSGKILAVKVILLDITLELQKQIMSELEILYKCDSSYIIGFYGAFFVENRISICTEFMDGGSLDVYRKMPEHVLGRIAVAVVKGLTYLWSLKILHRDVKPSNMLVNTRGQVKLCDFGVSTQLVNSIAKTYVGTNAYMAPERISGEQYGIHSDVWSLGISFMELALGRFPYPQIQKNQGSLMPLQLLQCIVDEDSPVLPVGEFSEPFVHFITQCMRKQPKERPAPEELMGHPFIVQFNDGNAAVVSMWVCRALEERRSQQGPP
Conditions: HEK293, at 10 µM.
Description: Inhibition of EGF-induced MEK5 activity in HEK293 cells assessed as phosphorylated ERK5 level at 10 uM after 1 hr by Western blotting relative to control

For a further test, the system named is MDA-N. As to the kind of experiment: Cytotoxicity against human MDA-N cells at 10 uM assessed as cell growth relative to control. Format: functional. Particulars: read-out: Activity.
In another test the test system is CCRF-CEM. As to the kind of experiment: Cytotoxicity against human CCRF-CEM cells at 10 uM assessed as cell growth relative to control. Format: functional. Conditions: read-out: Activity.
The test system of another test is HL-60(TB). As to the kind of experiment: Cytotoxicity against human HL-60(TB) cells at 10 uM assessed as cell growth relative to control. Conditions: read-out: Activity. It counts as functional.
The subject of the next test is K562. As to the kind of experiment: Cytotoxicity against human K562 cells at 10 uM assessed as cell growth relative to control. It counts as functional. Conditions: read-out: Activity.
A further test concerns HOP-62. Kind of test: Cytotoxicity against human HOP62 cells at 10 uM assessed as cell growth relative to control. Particulars: read-out: Activity. Format: functional.
The next test concerns NCI-H23. As to the kind of experiment: Cytotoxicity against human NCI-H23 cells at 10 uM assessed as cell growth relative to control. Format: functional. Particulars: read-out: Activity.
A further test has as its system NCI-H522. As to the kind of experiment: Cytotoxicity against human NCI-H522 cells at 10 uM assessed as cell growth relative to control. Format: functional. Particulars: read-out: Activity.
The next test relates to HCT-116. Kind of test: Cytotoxicity against human HCT116 cells at 10 uM assessed as cell growth relative to control. Format: functional. Conditions: read-out: Activity.
In the next test the test system is SF-539. As to the kind of experiment: Cytotoxicity against human SF539 cells at 10 uM assessed as cell growth relative to control. Format: functional. Conditions: read-out: Activity.
In a further test the test system is SNB-19. Kind of test: Cytotoxicity against human SNB19 cells at 10 uM assessed as cell growth relative to control. Format: functional. Particulars: read-out: Activity.
The test system of a further test is SNB-75. As to the kind of experiment: Cytotoxicity against human SNB75 cells at 10 uM assessed as cell growth relative to control. It counts as functional. Particulars: read-out: Activity.
The next test has as its system U-251. Kind of test: Cytotoxicity against human U251 cells at 10 uM assessed as cell growth relative to control. Format: functional. Conditions: read-out: Activity.
The next test concerns M14. Kind of test: Cytotoxicity against human M14 cells at 10 uM assessed as cell growth relative to control. Format: functional. Conditions: read-out: Activity.
The subject of a further test is SK-MEL-5. Kind of test: Cytotoxicity against human SK-MEL-5 cells at 10 uM assessed as cell growth relative to control. It counts as functional. Particulars: read-out: Activity.
In the next test the test system is IGROV-1. As to the kind of experiment: Cytotoxicity against human IGROV1 cells at 10 uM assessed as cell growth relative to control. It counts as functional. Conditions: read-out: Activity.
A further test relates to OVCAR-5. As to the kind of experiment: Cytotoxicity against human OVCAR5 cells at 10 uM assessed as cell growth relative to control. Conditions: read-out: Activity. It counts as functional.
The test system of another test is NCI/ADR-RES. Kind of test: Cytotoxicity against human NCI/ADR-RES cells at 10 uM assessed as cell growth relative to control. It counts as functional. Particulars: read-out: Activity.
The next test deals with SK-OV-3. Kind of test: Cytotoxicity against human SKOV3 cells at 10 uM assessed as cell growth relative to control. Format: functional. Particulars: read-out: Activity.
For the next test, the system named is A498. As to the kind of experiment: Cytotoxicity against human A498 cells at 10 uM assessed as cell growth relative to control. Format: functional. Conditions: read-out: Activity.
A further test deals with RXF 393. As to the kind of experiment: Cytotoxicity against human RXF393 cells at 10 uM assessed as cell growth relative to control. Format: functional. Conditions: read-out: Activity.
The next test deals with SN12C. As to the kind of experiment: Cytotoxicity against human SN12C cells at 10 uM assessed as cell growth relative to control. Particulars: read-out: Activity. Format: functional.
Another test concerns PC-3. As to the kind of experiment: Cytotoxicity against human PC3 cells at 10 uM assessed as cell growth relative to control. It counts as functional. Particulars: read-out: Activity.
Another test relates to DU-145. As to the kind of experiment: Cytotoxicity against human DU145 cells at 10 uM assessed as cell growth relative to control. Format: functional. Particulars: read-out: Activity.
In the next test the test system is MDA-MB-231. As to the kind of experiment: Cytotoxicity against human MDA-MB-231 cells at 10 uM assessed as cell growth relative to control. It counts as functional. Conditions: read-out: Activity.
Another test has as its system BT-549. As to the kind of experiment: Cytotoxicity against human BT549 cells at 10 uM assessed as cell growth relative to control. It counts as functional. Particulars: read-out: Activity.
Test [2] addresses Dual specificity mitogen-activated protein kinase kinase; MEK1/2 (Homo sapiens) (UniProt P36507+Q02750). Conditions: HEK293, at 10 µM.
Description: Inhibition of EGF-induced MEK1/2 activity in HEK293 cells assessed as phosphorylated ERK1/2 level at 10 uM after 1 hr by Western blotting relative to control

Sequence of Dual specificity mitogen-activated protein kinase kinase; MEK1/2 (Homo sapiens) (P36507 whole entry, looked up): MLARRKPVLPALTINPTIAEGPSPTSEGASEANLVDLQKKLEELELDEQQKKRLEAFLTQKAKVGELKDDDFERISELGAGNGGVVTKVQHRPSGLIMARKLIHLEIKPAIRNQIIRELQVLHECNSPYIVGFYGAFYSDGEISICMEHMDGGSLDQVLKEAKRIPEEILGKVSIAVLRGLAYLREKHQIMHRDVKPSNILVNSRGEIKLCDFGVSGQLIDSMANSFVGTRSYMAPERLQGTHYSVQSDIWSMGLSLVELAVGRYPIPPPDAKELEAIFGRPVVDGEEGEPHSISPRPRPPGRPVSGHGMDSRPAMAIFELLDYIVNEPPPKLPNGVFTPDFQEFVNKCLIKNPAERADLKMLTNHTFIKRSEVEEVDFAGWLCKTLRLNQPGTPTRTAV
Sequence of Dual specificity mitogen-activated protein kinase kinase; MEK1/2 (Homo sapiens) (Q02750 whole entry, looked up): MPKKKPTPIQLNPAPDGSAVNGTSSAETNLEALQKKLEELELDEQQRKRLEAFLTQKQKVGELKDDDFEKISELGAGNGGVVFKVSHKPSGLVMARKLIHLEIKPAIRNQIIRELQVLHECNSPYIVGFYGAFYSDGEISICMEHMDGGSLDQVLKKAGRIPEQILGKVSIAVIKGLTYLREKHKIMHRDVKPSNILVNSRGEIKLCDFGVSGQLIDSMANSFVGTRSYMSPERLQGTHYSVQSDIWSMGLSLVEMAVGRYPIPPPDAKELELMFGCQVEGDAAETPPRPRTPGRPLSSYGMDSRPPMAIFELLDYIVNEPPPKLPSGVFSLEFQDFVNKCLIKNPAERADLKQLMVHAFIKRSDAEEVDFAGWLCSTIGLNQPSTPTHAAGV

`CCCOc1cc(NCc2ccccc2)c2ncn(C(C)C)c2c1`: the inhibition in [1] came out at 24%.
Turning to `CN1CCN(c2ccc3[nH]c(-c4ccc5[nH]c(-c6ccc(O)cc6)nc5c4)nc3c2)CC1` [HOECHST 33258], the growth at 10 µM is -5.06% in the test on MDA-N; -4.89% with CCRF-CEM; -4.62% in the test with HL-60(TB); -5.22% in the test with K562; -4% with HOP-62; -4% in the test on NCI-H23. Moreover, the growth at 10 µM in the test with NCI-H522 was -5.52%; in the test on HCT-116 it was -4.52%; in the test on SF-539 it was -4%; in the test on SNB-19, -4%; in the test with SNB-75, -4%; with U-251, -4%. In addition, the growth at 10 µM with M14 was -4%; in the test on SK-MEL-5 it was -4.01%; with IGROV-1 it was -4%; in the test with OVCAR-5 it was -4%; with NCI/ADR-RES it was -4%; with SK-OV-3, -4%. Moreover, the growth at 10 µM in the test on A498, in the test on RXF 393, with SN12C, with PC-3, in the test with DU-145 and with MDA-MB-231 was -4% throughout. The growth at 10 µM with BT-549 was -4%. The inhibition stood at 22% in test [2] and 30% in test [1].
For `CC(C)Oc1cc(NCc2ccccc2)c2ncn(C(C)C)c2c1`, the inhibition in test [2] came out at 0%; in test [1], 22%.
In test [1], `CCOc1cc(NCc2ccccc2)c2ncn(C(C)C)c2c1` displayed an inhibition of 63%.
In the case of `CCOCCOc1cc(NCc2ccccc2)c2ncn(C(C)C)c2c1`, the inhibition amounted to 100% in [2] and 75% in test [1].
With `N#CC(=C(/N)Sc1ccccc1N)/C(C#N)=C(\N)Sc1ccccc1N`, the inhibition in [1] is 27%.
On to `COc1cc(N)c2c(c1)N(C(C)C)CN2`, for which the inhibition worked out at 18% in test [2] and 42% in test [1].
In the same order, the values of `CC(C)n1cnc2c(NCc3ccccc3)cc(OCCCN3CCOCC3)cc21` are 92% and 0%.
`CCCCOc1cc(NCc2ccccc2)c2ncn(C(C)C)c2c1` displayed an inhibition in [1] of 5%.
